Assay results from patent US4429127A, “Quinoline carboxylic acid derivative” (Kyorin Pharmaceutical Co., Ltd., priority 1981, dated 1984).
≈ marks a conversion by molar mass, not a printed value.

Legend:
Acute toxicity in mice = assay type: in vivo; conditions: for LD50 at 168 h: mouse, in vivo, male mice, 7 days observation
Description: Acute toxicity of the compound (I) was examined in mice (ICR strain, 7 weeks old). Observation period was 7 days after a single oral and intravenous administration.

E. coli ML4707 = assay: In vivo antibacterial activity, systemic infection in mice; design: species or system mice (male, ICR); conditions: Escherichia coli, ML4707, 168 h; mice, oral at 0 and 4 hrs. after infection; challenge 1.2 × 10^7 cells/animal in saline; 7 days survival; read-out: ED50
Method: (§1) The in vivo antibacterial activity of the compound (I) was determined in systemic infection in mice. The systemic infections were produced in male mice ICR (body weight, 19±2 g) by inoculating intraperitoneally with Staphylococcus aureus Smith and E. coli ML4707. The compounds were administered orally in divided doses at 0 and 4 hrs. after infection. The therapeutic effect of drugs was judged from the number of mice surviving after 7 days of observation. A comparison of in vivo antibacterial activity was made on the basis of the […] effective dose (ED50) calculated by the method of Litchfield and Wilcoxon.

[1] = tested on: Staphylococcus aureus Smith; assay: as above; design: species or system mice (male, ICR)
Method: as §1

[2] = tested on: gram-positive and gram-negative bacteria; assay: In vitro antibacterial activity against gram-positive and gram-negative bacteria (in words); assay type: cell-based; conditions: versus nalidixic acid and pipemidic acid
Method: (§2) The minimum inhibitory concentration (MIC) of the compound (I) was determined by an agar dilution technique (the standard method of Japan Society of Chemotherapy) against standard strains of gram-positive and gram-negative bacteria.

gram-positive bacteria = assay: In vitro antibacterial activity against gram-positive bacteria (in words); assay type: cell-based
Method: as §2

S. pneumoniae IID552 = assay: In vitro antibacterial activity (MIC, agar dilution); assay type: cell-based; conditions: Streptococcus pneumoniae; S. pneumoniae IID552; inoculum 10^8 cells/ml; read-out: MIC
Method: as §2
(§3) Inoculum size: 10^8 cells/ml

[3] = tested on: Haemophilus influenzae IID986; assay: as above; assay type: cell-based; conditions: Haemophilus influenzae IID986; inoculum 10^8 cells/ml; read-out: MIC
Method: as §2, §3

[4] = tested on: Serratia marcescens IID618; assay: as above; assay type: cell-based; conditions: inoculum 10^8 cells/ml
Method: as §2, §3

[5] = tested on: Pseudomonas aeruginosa V-1; assay: as above; assay type: cell-based; conditions: V1; Pseudomonas aeruginosa V-1; inoculum 10^8 cells/ml; read-out: MIC
Method: as §2, §3

E. coli NIHJ JC-2 = assay: as above; assay type: cell-based; conditions: Escherichia coli, NIHJJC2; E. coli NIHJ JC-2; inoculum 10^8 cells/ml; read-out: MIC
Method: as §2, §3

[6] = tested on: Alcaligenes faecalis 0104002; assay: as above; assay type: cell-based; conditions: inoculum 10^8 cells/ml
Method: as §2, §3

[7] = tested on: Staphylococcus aureus 209P; assay: as above; assay type: cell-based; conditions: Staphylococcus aureus 209P; inoculum 10^8 cells/ml; read-out: MIC
Method: as §2, §3

E. coli ATCC10536 = assay: as above; assay type: cell-based; conditions: Escherichia coli; E. coli ATCC10536; inoculum 10^8 cells/ml; read-out: MIC
Method: as §2, §3

[8] = tested on: Acinetobacter enitratus IID876; assay: as above; assay type: cell-based; conditions: inoculum 10^8 cells/ml
Method: as §2, §3

[9] = tested on: Enterobacter cloacae IID977; assay: as above; assay type: cell-based; conditions: inoculum 10^8 cells/ml
Method: as §2, §3

Proteus vulgaris IFO3167 = assay: as above; assay type: cell-based; conditions: Proteus vulgaris IFO3167; inoculum 10^8 cells/ml; read-out: MIC
Method: as §2, §3

[10] = tested on: Citrobacter freundii IID976; assay: as above; assay type: cell-based; conditions: inoculum 10^8 cells/ml
Method: as §2, §3

[11] = tested on: S. aureus IID670 (Terajima); assay: as above; assay type: cell-based; conditions: Staphylococcus aureus; S. aureus IID670 (Terajima); inoculum 10^8 cells/ml; read-out: MIC
Method: as §2, §3

P. aeruginosa IFO12689 = assay: as above; assay type: cell-based; conditions: Pseudomonas aeruginosa; P. aeruginosa IFO12689; inoculum 10^8 cells/ml; read-out: MIC
Method: as §2, §3

[12] = tested on: Salmonella enteritidis IID604; assay: as above; assay type: cell-based; conditions: Salmonella enterica; Salmonella enteritidis IID604; inoculum 10^8 cells/ml; read-out: MIC
Method: as §2, §3

S. faecalis IID682 = assay: as above; assay type: cell-based; conditions: Enterococcus faecalis; S. faecalis IID682; inoculum 10^8 cells/ml; read-out: MIC
Method: as §2, §3

[13] = tested on: Streptococcus pyogenes IID692; assay: as above; assay type: cell-based; conditions: Streptococcus pyogenes IID692; inoculum 10^8 cells/ml; read-out: MIC
Method: as §2, §3

[14] = tested on: Klebsiella pneumoniae IFO3512; assay: as above; assay type: cell-based; conditions: Klebsiella pneumoniae IFO3512; inoculum 10^8 cells/ml; read-out: MIC
Method: as §2, §3

[15] = tested on: Yersinia enterocolitica IID981; assay: as above; assay type: cell-based; conditions: inoculum 10^8 cells/ml
Method: as §2, §3

S. epidermidis IID866 = assay: as above; assay type: cell-based; conditions: Staphylococcus epidermidis, inoculum 10^8 cells/ml
Method: as §2, §3

Shigella sonnei IID969 = assay: as above; assay type: cell-based; conditions: inoculum 10^8 cells/ml
Method: as §2, §3

S. pyogenes S-8 = assay: as above; assay type: cell-based; conditions: Streptococcus pyogenes, S8; S. pyogenes S-8; inoculum 10^8 cells/ml; read-out: MIC
Method: as §2, §3

P. morganii IID602 = assay: as above; assay type: cell-based; conditions: Morganella morganii, inoculum 10^8 cells/ml
Method: as §2, §3

[16] = tested on: Bacillus subtilis PCI 219; assay: as above; assay type: cell-based; conditions: PCI219; Bacillus subtilis PCI 219; inoculum 10^8 cells/ml; read-out: MIC
Method: as §2, §3

P. mirabilis IID994 = assay: as above; assay type: cell-based; conditions: Proteus mirabilis, inoculum 10^8 cells/ml
Method: as §2, §3

In the case of `CCn1cc(C(=O)O)c(=O)c2cc(F)c(N3CCN(Cc4ccc(N)cc4)CC3)c(F)c21` [compound (I), 7-[4-(p-aminobenzyl)-1-piperazinyl]-1-ethyl-6,8-difluoro-1,4-dihydro-4-oxoquinoline-3-carboxylic acid], the “Acute toxicity, in words” value (Acute toxicity in mice; mice, single oral and intravenous administration) is reported as “low toxicity”, the LD50 at 168 h (Acute toxicity in mice; iv) is reported as 250 to 300 mg/kg and the LD50 at 168 h (Acute toxicity in mice; po) is reported as greater than 4000 mg/kg. The ED50 (E. coli ML4707) was 13.8 mg/kg, the “Potency superior to nalidixic acid (in vivo)” value ([1]; S. aureus Smith, versus nalidixic acid) was 172 times and the “In vivo antibacterial activity, in words” value ([1]; S. aureus Smith, versus nalidixic acid and pipemidic acid) was “significantly more effective than that of nalidixic acid and pipemidic acid”. The “Potency superior to pipemidic acid (in vivo)” value ([1]; S. aureus Smith, versus pipemidic acid) was 62 times, the ED50 ([1]; Staphylococcus aureus, 168 h, mice, oral at 0 and 4 hrs. after infection, challenge 2.4 × 10^5 cells/animal in BHI containing mucin, 7 days survival, read-out: ED50) was 3.7 mg/kg and the “Antibacterial activity against gram-positive and gram-negative bacteria, in words” value [2] was “more active than nalidixic acid and pipemidic acid”. The “Antibacterial activity against gram-positive bacteria containing Streptococcus spp., in words” value (gram-positive bacteria) was “more potent against gram-positive bacteria containing Streptococcus spp”, the MIC (S. pneumoniae IID552) was 0.39 µg/mL (≈ 0.881 µM) and the MIC [3] was 0.2 µg/mL (≈ 0.452 µM). It also gave an MIC [4] of 3.13 µg/mL (≈ 7.07 µM), an MIC [5] of 12.5 µg/mL (≈ 28.3 µM) and an MIC (E. coli NIHJ JC-2) of 0.2 µg/mL (≈ 0.452 µM). The MIC [6] was 3.13 µg/mL (≈ 7.07 µM), the MIC [7] was 0.1 µg/mL (≈ 0.226 µM) and the MIC (E. coli ATCC10536) was 0.39 µg/mL (≈ 0.881 µM). The MIC [8] was 0.78 µg/mL (≈ 1.76 µM), the MIC [9] was 1.56 µg/mL (≈ 3.53 µM) and the MIC (Proteus vulgaris IFO3167) was 1.56 µg/mL (≈ 3.53 µM). The MIC [10] was 1.56 µg/mL (≈ 3.53 µM), the MIC [11] was 0.2 µg/mL (≈ 0.452 µM) and the MIC (P. aeruginosa IFO12689) was 25 µg/mL (≈ 56.5 µM). It also gave an MIC [12] of 1.56 µg/mL (≈ 3.53 µM), an MIC (S. faecalis IID682) of 0.78 µg/mL (≈ 1.76 µM) and an MIC [13] of 0.78 µg/mL (≈ 1.76 µM). The MIC [14] was 0.1 µg/mL (≈ 0.226 µM), the MIC [15] was 1.56 µg/mL (≈ 3.53 µM) and the MIC (S. epidermidis IID866) was 0.2 µg/mL (≈ 0.452 µM). For the same compound, the MIC (Shigella sonnei IID969) was 0.39 µg/mL (≈ 0.881 µM), the MIC (S. pyogenes S-8) was 0.78 µg/mL (≈ 1.76 µM) and the MIC (P. morganii IID602) was 1.56 µg/mL (≈ 3.53 µM). For the same compound, the MIC [16] was 0.1 µg/mL (≈ 0.226 µM) and the MIC (P. mirabilis IID994) was 1.56 µg/mL (≈ 3.53 µM).
